Experiment [1] deals with T1, c-Met (cytoplasmic domain) (Homo sapiens, UniProt P08581).
T1 construct: 10 ng/mL c-Met (cytoplasmic domain, Invitrogen Corporation #PV3143); purchased Invitrogen Corporation PV3143
Nature of the experiment: c-Met Kinase Assay (same methods as for ALK, with modifications). Type of experiment: biochemical. The essentials:
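IC50 values were fitted by variable-slope sigmoidal regression of percent inhibition against log compound concentration. Phosphorylation was read with Eu-N1 PT66 antibody after a 15 min, 37 °C reaction. The reaction was initiated with 10 ng/mL c-Met cytoplasmic domain on wells coated with 10 μg/mL PLC-γ in TBS.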

The target in experiment [2] is T2, baculovirus-expressed ALK (Homo sapiens, UniProt Q9UM73).
T2 construct: host or cells: baculovirus expression system
The experiment can be described thus: ALK Kinase Assay (ELISA-type, time-resolved fluorescence). Type of experiment: biochemical. Summed up: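 Wells were coated with phospholipase C-γ at 10 μg/mL in Tris-buffered saline. Adding 30 ng/ml enzyme started the reaction, which ran at 37° C for 15 minutes before Eu-N1 PT66 antibody detection. Percent inhibition versus log10 concentration gave IC50 by variable-slope fit.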

Setting [3] is: 1 μM ATP (Km level), 10 ng/mL c-Met, read-out: cMet Activity (c-Met kinase inhibition, IC50 class).
The mark [4] stands for this setting: 1 μM ATP (Km level), 30 ng/ml ALK, 37° C., 15 minutes, read-out: ALK Activity (ALK kinase inhibition, IC50 class).
Setting [5] is: c-Met kinase inhibition, 1 μM ATP, read-out: cMet Activity.
Where [6] appears, read: ALK kinase inhibition, 1 μM ATP, read-out: ALK Activity.

The source of these data is patent US8148391B2 (Cephalon, Inc., priority 2006, dated 2012).

Each structure is given as a SMILES string. Like-named read-outs stand apart in the source and are kept apart here.

T1 sequence (P08581 956-1390 limits assumed): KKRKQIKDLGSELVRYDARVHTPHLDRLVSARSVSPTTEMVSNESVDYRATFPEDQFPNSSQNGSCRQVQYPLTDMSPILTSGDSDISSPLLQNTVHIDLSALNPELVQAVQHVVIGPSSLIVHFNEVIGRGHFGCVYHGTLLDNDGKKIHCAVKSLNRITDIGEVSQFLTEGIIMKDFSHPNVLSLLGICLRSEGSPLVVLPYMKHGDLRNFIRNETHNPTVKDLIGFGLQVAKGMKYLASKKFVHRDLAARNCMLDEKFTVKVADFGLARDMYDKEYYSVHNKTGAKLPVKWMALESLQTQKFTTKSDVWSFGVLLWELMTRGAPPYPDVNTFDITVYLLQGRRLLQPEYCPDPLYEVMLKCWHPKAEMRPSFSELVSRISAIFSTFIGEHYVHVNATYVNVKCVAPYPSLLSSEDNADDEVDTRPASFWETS
T2 sequence (Q9UM73 19-1620): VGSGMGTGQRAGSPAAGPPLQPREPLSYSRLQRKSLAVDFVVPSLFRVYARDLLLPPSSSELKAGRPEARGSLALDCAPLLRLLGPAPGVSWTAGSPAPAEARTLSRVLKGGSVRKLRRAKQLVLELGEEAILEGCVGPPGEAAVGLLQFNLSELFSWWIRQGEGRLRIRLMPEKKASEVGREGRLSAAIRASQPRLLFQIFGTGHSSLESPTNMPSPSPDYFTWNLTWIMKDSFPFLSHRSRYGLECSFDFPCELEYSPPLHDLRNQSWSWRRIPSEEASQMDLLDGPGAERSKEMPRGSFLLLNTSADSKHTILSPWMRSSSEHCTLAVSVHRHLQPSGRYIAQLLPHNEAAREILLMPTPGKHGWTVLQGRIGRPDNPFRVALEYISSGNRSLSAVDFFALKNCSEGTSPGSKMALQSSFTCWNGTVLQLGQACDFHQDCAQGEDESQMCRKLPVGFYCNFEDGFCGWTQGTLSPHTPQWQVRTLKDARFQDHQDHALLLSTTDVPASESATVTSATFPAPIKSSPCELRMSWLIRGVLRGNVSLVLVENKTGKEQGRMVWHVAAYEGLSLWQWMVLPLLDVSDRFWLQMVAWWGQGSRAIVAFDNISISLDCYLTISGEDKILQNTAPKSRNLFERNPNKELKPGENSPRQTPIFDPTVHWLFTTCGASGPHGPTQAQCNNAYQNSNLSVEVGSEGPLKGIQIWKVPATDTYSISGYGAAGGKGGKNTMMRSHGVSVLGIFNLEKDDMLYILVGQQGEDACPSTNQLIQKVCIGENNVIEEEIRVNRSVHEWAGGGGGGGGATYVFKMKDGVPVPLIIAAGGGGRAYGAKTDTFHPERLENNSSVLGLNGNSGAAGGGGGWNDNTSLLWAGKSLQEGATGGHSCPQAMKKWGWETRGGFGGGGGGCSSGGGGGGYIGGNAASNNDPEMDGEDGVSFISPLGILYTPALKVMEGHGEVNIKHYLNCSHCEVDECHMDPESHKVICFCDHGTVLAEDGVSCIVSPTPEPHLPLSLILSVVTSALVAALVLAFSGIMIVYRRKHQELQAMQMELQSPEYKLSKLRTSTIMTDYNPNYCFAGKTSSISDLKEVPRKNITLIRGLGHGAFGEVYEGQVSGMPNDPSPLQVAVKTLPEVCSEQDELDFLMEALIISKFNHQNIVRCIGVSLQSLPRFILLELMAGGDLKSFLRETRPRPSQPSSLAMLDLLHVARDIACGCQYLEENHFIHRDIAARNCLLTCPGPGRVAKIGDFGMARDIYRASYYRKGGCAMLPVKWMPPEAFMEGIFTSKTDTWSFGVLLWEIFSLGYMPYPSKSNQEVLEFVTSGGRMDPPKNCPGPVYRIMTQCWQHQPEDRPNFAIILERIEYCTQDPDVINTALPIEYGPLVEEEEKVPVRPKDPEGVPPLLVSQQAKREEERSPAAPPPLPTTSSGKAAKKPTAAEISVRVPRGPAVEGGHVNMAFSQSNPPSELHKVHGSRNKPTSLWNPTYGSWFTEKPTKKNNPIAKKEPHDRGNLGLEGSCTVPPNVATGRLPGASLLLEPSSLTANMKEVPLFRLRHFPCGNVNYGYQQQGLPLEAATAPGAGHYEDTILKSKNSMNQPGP

With `COCCN1CCc2ccc(Nc3ncc(Cl)c(Nc4ccccc4C(=O)NCCN4CCCC4)n3)cc2CC1` [Example 1416, 2-{5-Chloro-2-[3-(2-methoxy-ethyl)-2,3,4,5-tetrahydro-1H-benzo[d]azepin-7-ylamino]-pyrimidin-4-ylamino}-N-(2-pyrrolidin-1-yl-ethyl)-benzamide], the IC50 in experiment [1] (setting [3]) and in experiment [2] (setting [4]) was 100 to 1000 nM in each case.
Turning to `CCOC(=O)N1CCCOc2cc(Nc3ncc(Cl)c(Nc4ccsc4C(=O)NC)n3)ccc21` [Example 1418, 3-[5-Chloro-4-(2-methylcarbamoyl-thiophen-3-ylamino)-pyrimidin-2-ylamino]-7,8-dihydro-6H-5-oxa-9-aza-benzocycloheptene-9-carboxylic acid ethyl ester], the IC50 in experiment [1] (setting [3]) and in experiment [2] (setting [4]) was 100 to 1000 nM in each case.
Turning to `CCOC(=O)N1CCCOc2cc(Nc3ncc(Cl)c(Nc4ccccc4C(=O)NC)n3)ccc21` [Example 1419, 3-[5-Chloro-4-(2-methylcarbamoyl-phenylamino)-pyrimidin-2-ylamino]-7,8-dihydro-6H-5-oxa-9-aza-benzocycloheptene-9-carboxylic acid ethyl ester], the IC50 in experiment [1] (setting [3]) and in experiment [2] (setting [4]) was < 100 nM throughout.
As for `CNC(=O)c1cc(-c2ccc(C#N)cc2)cc(F)c1Nc1nc(Nc2ccc3c(c2)NC(=O)CCC3)ncc1Cl` [Example 1420, 4-[5-Chloro-2-(2-oxo-2,3,4,5-tetrahydro-1H-benzo[b]azepin-8-ylamino)-pyrimidin-4-ylamino]-4′-cyano-5-fluoro-biphenyl-3-carboxylic acid methyl amide], the IC50 was 100 to 1000 nM in experiment [1] (setting [3]) and < 100 nM in experiment [2] (setting [4]).
As to `COCCN1CCc2ccc(Nc3ncc(Cl)c(Nc4ccccc4C(=O)NCC4CC4)n3)cc2CC1` [Example 1421, 2-{5-Chloro-2-[3-(2-methoxy-ethyl)-2,3,4,5-tetrahydro-1H-benzo[d]azepin-7-ylamino]-pyrimidin-4-ylamino}-N-cyclopropylmethyl-benzamide], the IC50 is 1000 to 10000 nM in experiment [1] (setting [3]) and < 100 nM in experiment [2] (setting [4]).
The corresponding values for `CNC(=O)c1cc(-c2cnn(C)c2)cc(F)c1Nc1nc(Nc2ccc3c(c2)NC(=O)CCC3)ncc1Cl` [Example 1422, 2-[5-Chloro-2-(2-oxo-2,3,4,5-tetrahydro-1H-benzo[b]azepin-8-ylamino)-pyrimidin-4-ylamino]-3-fluoro-N-methyl-5-(1-methyl-1H-pyrazol-4-yl)-benzamide] are < 100 nM and 100 to 1000 nM.
`CNC(=O)c1cc(-c2cnn(C)c2)cc(F)c1Nc1nc(Nc2ccc3c(c2)CCN(CCOC)CC3)ncc1Cl` [Example 1423, 2-{5-Chloro-2-[3-(2-methoxy-ethyl)-2,3,4,5-tetrahydro-1H-benzo[d]azepin-7-ylamino]-pyrimidin-4-ylamino}-3-fluoro-N-methyl-5-(1-methyl-1H-pyrazol-4-yl)-benzamide]: the IC50 in experiment [1] (setting [3]) and in experiment [2] (setting [4]) was < 100 nM in each case.
Turning to `CNC(=O)c1cc(-c2cnn(C)c2)cc(F)c1Nc1nc(Nc2ccc3c(c2)N(C(C)=O)CCCO3)ncc1Cl` [Example 1424, 2-[2-(9-Acetyl-6,7,8,9-tetrahydro-5-oxa-9-aza-benzocyclohepten-2-ylamino)-5-chloro-pyrimidin-4-ylamino]-3-fluoro-N-methyl-5-(1-methyl-1H-pyrazol-4-yl)-benzamide], the IC50 in experiment [1] (setting [3]) is < 100 nM; in experiment [2] (setting [4]), 100 to 1000 nM.
The corresponding values for `CCN1CCCOc2ccc(Nc3ncc(Cl)c(Nc4c(F)cc(-c5cnn(C)c5)cc4C(=O)NC)n3)cc21` [Example 1425, 2-[5-Chloro-2-(9-ethyl-6,7,8,9-tetrahydro-5-oxa-9-aza-benzocyclohepten-2-ylamino)-pyrimidin-4-ylamino]-3-fluoro-N-methyl-5-(1-methyl-1H-pyrazol-4-yl)-benzamide] are < 100 nM and < 100 nM.
Consider `C#CCNC(=O)c1cccc(F)c1Nc1nc(Nc2ccc3c(c2)OCCCN3C(=O)OCCCN(C)C)ncc1Cl` [Example 1427, 3-[5-Chloro-4-(2-fluoro-6-prop-2-ynylcarbamoyl-phenylamino)-pyrimidin-2-ylamino]-7,8-dihydro-6H-5-oxa-9-aza-benzocycloheptene-9-carboxylic acid 3-dimethylamino-propyl ester], for which the IC50 in experiment [1] (setting [3]) and in experiment [2] (setting [4]) was 100 to 1000 nM each time.
As for `CNC(=O)c1sccc1Nc1nc(Nc2ccc3c(c2)OCCCN3C(=O)OCCCN(C)C)ncc1Cl` [Example 1428, 3-[5-Chloro-4-(2-methylcarbamoyl-thiophen-3-ylamino)-pyrimidin-2-ylamino]-7,8-dihydro-6H-5-oxa-9-aza-benzocycloheptene-9-carboxylic acid 3-dimethylamino-propyl ester], the IC50 in experiment [1] (setting [3]) and in experiment [2] (setting [4]) was 100 to 1000 nM each time.
`C#CCNC(=O)c1sccc1Nc1nc(Nc2ccc3c(c2)OCCCN3C(=O)OCCCN(C)C)ncc1Cl` [Example 1429, 3-[5-Chloro-4-(2-prop-2-ynylcarbamoyl-thiophen-3-ylamino)-pyrimidin-2-ylamino]-7,8-dihydro-6H-5-oxa-9-aza-benzocycloheptene-9-carboxylic acid 3-dimethylamino-propyl ester]: the IC50 in experiment [1] (setting [3]) and in experiment [2] (setting [4]) was 100 to 1000 nM in each case.
For `C#CCNC(=O)c1cccc(F)c1Nc1nc(Nc2ccc3c(c2)OCCCN3C(=O)OC)ncc1Cl` [Example 1430, 3-[5-Chloro-4-(2-fluoro-6-prop-2-ynylcarbamoyl-phenylamino)-pyrimidin-2-ylamino]-7,8-dihydro-6H-5-oxa-9-aza-benzocycloheptene-9-carboxylic acid methyl ester], the IC50 was < 100 nM in experiment [1] (setting [3]) and 100 to 1000 nM in experiment [2] (setting [4]).
Taken in the same sequence, the figures for `C#CCNC(=O)c1cccc(F)c1Nc1nc(Nc2ccc3c(c2)OCCCN3C(=O)OC(C)C)ncc1Cl` [Example 1433, 3-[5-Chloro-4-(2-fluoro-6-prop-2-ynylcarbamoyl-phenylamino)-pyrimidin-2-ylamino]-7,8-dihydro-6H-5-oxa-9-aza-benzocycloheptene-9-carboxylic acid isopropyl ester] were 100 to 1000 nM and 100 to 1000 nM.
The corresponding values for `CNC(=O)c1cc(-c2cnn(C)c2)cc(F)c1Nc1nc(Nc2ccc3c(c2)OCCCN3C(=O)OC)ncc1Cl` [Example 1434, 3-{5-Chloro-4-[2-fluoro-6-methylcarbamoyl-4-(1-methyl-1H-pyrazol-4-yl)-phenylamino]-pyrimidin-2-ylamino}-7,8-dihydro-6H-5-oxa-9-aza-benzocycloheptene-9-carboxylic acid methyl ester] are < 100 nM and < 100 nM.
Turning to `CNC(=O)c1sccc1Nc1nc(Nc2ccc3c(c2)OCCCN3C(=O)OC(C)C)ncc1Cl` [Example 1435, 3-[5-Chloro-4-(2-methylcarbamoyl-thiophen-3-ylamino)-pyrimidin-2-ylamino]-7,8-dihydro-6H-5-oxa-9-aza-benzocycloheptene-9-carboxylic acid isopropyl ester], the IC50 in experiment [1] (setting [3]) and in experiment [2] (setting [4]) was 100 to 1000 nM in each case.
Turning to `C#CCNC(=O)c1cccc(F)c1Nc1nc(Nc2ccc3c(c2)OCCCN3C(=O)OCCOC)ncc1Cl` [Example 1437, 3-[5-Chloro-4-(2-fluoro-6-prop-2-ynylcarbamoyl-phenylamino)-pyrimidin-2-ylamino]-7,8-dihydro-6H-5-oxa-9-aza-benzocycloheptene-9-carboxylic acid 2-methoxy-ethyl ester], the IC50 in experiment [1] (setting [3]) was 100 to 1000 nM; in experiment [2] (setting [4]) it was < 100 nM.
As to `CNC(=O)c1cccc(F)c1Nc1nc(Nc2ccc3c(c2)OCCCN3C(=O)OC2CCCN(C)C2)ncc1Cl` (stereo not drawn) [Example 1438, 3-[5-Chloro-4-(2-fluoro-6-methylcarbamoyl-phenylamino)-pyrimidin-2-ylamino]-7,8-dihydro-6H-5-oxa-9-aza-benzocycloheptene-9-carboxylic acid 1-methyl-piperidin-3-yl ester], the IC50 in experiment [1] (setting [5]) and in experiment [2] (setting [6]) was < 100 nM each time.
As to `C#CCNC(=O)c1cccc(F)c1Nc1nc(Nc2ccc3c(c2)OCCCN3C(=O)OC2CCCN(C)C2)ncc1Cl` (stereo not drawn) [Example 1439, 3-[5-Chloro-4-(2-fluoro-6-prop-2-ynylcarbamoyl-phenylamino)-pyrimidin-2-ylamino]-7,8-dihydro-6H-5-oxa-9-aza-benzocycloheptene-9-carboxylic acid 1-methyl-piperidin-3-yl ester], the IC50 in experiment [1] (setting [5]) and in experiment [2] (setting [6]) was 100 to 1000 nM in each case.
Regarding `CNC(=O)c1sccc1Nc1nc(Nc2ccc3c(c2)OCCCN3C(=O)OC2CCCN(C)C2)ncc1Cl` (stereo not drawn) [Example 1440, 3-[5-Chloro-4-(2-methylcarbamoyl-thiophen-3-ylamino)-pyrimidin-2-ylamino]-7,8-dihydro-6H-5-oxa-9-aza-benzocycloheptene-9-carboxylic acid 1-methyl-piperidin-3-yl ester], the IC50 in experiment [1] (setting [5]) and in experiment [2] (setting [6]) was 100 to 1000 nM in each case.
For `CCN1CCNC(=O)c2ccc(Nc3ncc(Cl)c(N[C@@H]4CCCC[C@H]4NS(C)(=O)=O)n3)cc21` [Example 1451, N-{(1R,2R)-2-[5-Chloro-2-(1-ethyl-5-oxo-2,3,4,5-tetrahydro-1H-benzo[e][1,4]diazepin-8-ylamino)-pyrimidin-4-ylamino]-cyclohexyl}-methanesulfonamide], the IC50 in experiment [1] (setting [5]) was 100 to 1000 nM; in experiment [2] (setting [6]), < 100 nM.
